Results reported in US9920017B2, “Heterocyclic compounds as pesticides” (BAYER CROPSCIENCE AKTIENGESELLSCHAFT, priority 2014, dated 2018).
Where two headings read alike, the source gives them in different places.

What was measured:
Musca domestica = Musca domestica test; assay type: in vivo; details: 100 ppm; adult houseflies; after 2 days
Procedure: Musca domestica Test Solvent: dimethyl sulphoxide To produce an appropriate active ingredient formulation, 10 mg of active ingredient are mixed with 0.5 ml of dimethyl sulphoxide, and the concentrate is diluted with water to the desired concentration. Vessels containing a sponge treated with sugar solution and the active ingredient formulation of the desired concentration are populated with 10 adult houseflies (Musca domestica). After 2 days, the kill in % is determined 100% means that all of the flies have been killed; 0% means that none of the flies have been killed.

Lucilia cuprina = Lucilia cuprina test; assay type: in vivo; details: 100 ppm; L1 larvae; after 2 days
Procedure: Lucilia cuprina Test Solvent: dimethyl sulphoxide To produce an appropriate active ingredient formulation, 10 mg of active ingredient are mixed with 0.5 ml of dimethyl sulphoxide, and the concentrate is diluted with water to the desired concentration. About 20 L1 larvae of the Australian sheep blowfly (Lucilia cuprina) are transferred into a test vessel containing minced horsemeat and the active ingredient preparation of the desired concentration. After 2 days, the kill in % is determined 100% means that all the larvae have been killed; 0% means that no larvae have been killed.

[1] = Determination of log P values by HPLC (reversed-phase C18); assay type: physicochemical; details: for chromatographic logP: reversed-phase C18 HPLC column
In short: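 Log P per EEC Directive 79/831 Annex V.A8 by reversed-phase C18 HPLC at 55 °C, […], gradient 10→95% acetonitrile in 4.25 min. Calibrated with unbranched alkan-2-ones (C3–C16) by retention-time interpolation; lambda max from UV spectra 200–400 nm.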

Meloidogyne incognita = Meloidogyne incognita test (MELGIN); assay type: in vivo; details: 20 ppm; lettuce; after 14 days
Procedure: Meloidogyne incognita Test (MELGIN) Solvent: 125.0 parts by weight of acetone To produce a suitable active ingredient formulation, 1 part by weight of active ingredient is mixed with the stated amount of solvent and the concentrate is diluted with water to the desired concentration. Vessels are filled with sand, active ingredient solution, an egg/larvae suspension of the southern root-knot nematode (Meloidogyne incognita) and lettuce seeds. The lettuce seeds germinate and the plants develop. The galls develop on the roots. After 14 days, the nematicidal efficacy in % is determined by the formation of galls. 100% means that no galls were found; 0% means that the number of galls on the treated plants corresponds to the untreated control.

Boophilus microplus = Boophilus microplus injection test; assay type: in vivo; details: 20 μg/animal injected into engorged adult female cattle ticks; assessed after 7 days by laying of fertile eggs
Procedure: Boophilus microplus—Injection Test
(§1) Solvent: dimethyl sulphoxide
To produce an appropriate active ingredient formulation, 10 mg of active ingredient are mixed with 0.5 ml of solvent and the concentrate is diluted with solvent to the desired concentration.
1 μl of the active ingredient solution is injected into the abdomen of 5 engorged adult female cattle ticks (Boophilus microplus). The animals are transferred into dishes and kept in a climate-controlled room.
Efficacy is assessed after 7 days by laying of fertile eggs. Eggs which are not visibly fertile are stored in a climate-controlled cabinet for about another 42 days until the larvae hatch. An efficacy of 100% means that none of the ticks has laid any fertile eggs; 0% means that all the eggs are fertile.

Phaedon cochleariae = Phaedon cochleariae spray test (PHAECO); assay type: in vivo; details: 500 g/ha; Chinese cabbage leaf discs, larvae; after 7 days
Procedure: Phaedon cochleariae—Spray Test (PHAECO)
(§2) Solvent: 78.0 parts by weight of acetone • • 1.5 parts by weight of dimethylformamide
(§3) Emulsifier: alkylaryl polyglycol ether
(§4) To produce an appropriate active ingredient formulation, 1 part by weight of active ingredient is dissolved using the stated parts by weight of solvent and made up with water containing an emulsifier concentration of 1000 ppm until the desired concentration is attained. To produce further test concentrations, the preparation is diluted with emulsifier-containing water.
Discs of Chinese cabbage leaves (Brassica pekinensis) are sprayed with an active ingredient formulation of the desired concentration and, after drying, populated with larvae of the mustard beetle (Phaedon cochleariae).
After 7 days, the efficacy in % is determined 100% means that all the beetle larvae have been killed; 0% means that no beetle larvae have been killed.

Cooperia curticei = Cooperia curticei test; assay type: in vivo; details: 20 ppm; nematode larvae; after 5 days
Procedure: as §1
To produce an appropriate active ingredient formulation, 10 mg of active ingredient are mixed with 0.5 ml of dimethyl sulphoxide and the concentrate is diluted with “Ringer's solution” to the desired concentration.
Vessels containing the active ingredient formulation of the desired concentration are populated with about 40 nematode larvae (Cooperia curticei).
After 5 days, the kill in % is determined 100% means that all the larvae have been killed; 0% means that none of the larvae have been killed.

Haemonchus contortus = Haemonchus contortus test; assay type: in vivo; details: 20 ppm; larvae; after 5 days
Procedure: Haemonchus contortus Test Solvent: dimethyl sulphoxide To produce an appropriate active ingredient formulation, 10 mg of active ingredient are mixed with 0.5 ml of dimethyl sulphoxide and the concentrate is diluted with “Ringer's solution” to the desired concentration. Vessels containing the active ingredient formulation of the desired concentration are populated with about 40 larvae of the red stomach worm (Haemonchus contortus). After 5 days, the kill in % is determined 100% means that all the larvae have been killed; 0% means that none of the larvae have been killed.

Myzus persicae = Myzus persicae spray test; assay type: in vivo; details: 500 g/ha; Chinese cabbage leaf discs; after 6 days
Procedure: Myzus persicae—Spray Test
Solvent: 78 parts by weight of acetone • • 1.5 parts by weight of dimethylformamide
as §3, §4
Discs of Chinese cabbage leaves (Brassica pekinensis) infested by all stages of the green peach aphid (Myzus persicae) are sprayed with an active ingredient formulation of the desired concentration.
After 6 days, the efficacy in % is determined 100% means that all the aphids have been killed; 0% means that no aphids have been killed.

Tetranychus urticae = Tetranychus urticae spray test, OP-resistant; assay type: in vivo; details: 500 g/ha, bean leaf discs, after 6 days
Procedure: Tetranychus urticae—Spray Test, OP-Resistant
as §2, §3, §4
Discs of bean leaves (Phaseolus vulgaris) infested by all stages of the greenhouse red spider mite (Tetranychus urticae) are sprayed with an active ingredient formulation of the desired concentration.
After 6 days, the efficacy in % is determined. 100% means that all the spider mites have been killed; 0% means that no spider mites have been killed.

[2] = pH 3.4, HPLC-MS, preparation examples, read-out: log P
[3] = HPLC, reversed-phase C18, 55° C., final compounds table, read-out: log P neutral
[4] = HPLC, reversed-phase C18, 55° C., final compounds table

| SMILES | nematicidal efficacy (formation of galls) (Meloidogyne incognita) [%] | efficacy (Boophilus microplus) [%] | efficacy (Phaedon cochleariae) [%] | log P neutral [1, 4] | efficacy (kill) (Cooperia curticei) [%] | also measured |
| --- | --- | --- | --- | --- | --- | --- |
| O=C(Nc1ncn(-c2c(F)cccc2F)n1)c1ccccc1C(F)(F)F [Compound I-1-11, 2-Trifluoromethyl-N-[1-(2,6-difluorophenyl)-1H-1,2,4-triazol-3-yl]benzamide] | 90 | 100 |  |  |  | efficacy (kill) (Musca domestica): 80%; efficacy (kill) (Lucilia cuprina): 100%; chromatographic logP [1, 2]: 1.97; chromatographic logP [1, 3]: 1.97 |
| O=C(Nc1ncn(-c2c(F)cccc2F)n1)c1ccccc1C(F)F [Compound I-1-18] | 100 | 80 | 83 | 1.92 |  |  |
| O=C(Nc1ncn(-c2c(F)cccc2F)n1)c1ccccc1I [Compound I-1-21] | 100 |  |  | 1.89 | 100 | efficacy (kill) (Haemonchus contortus): 80% |
| O=C(Nc1ncn(-c2c(F)cccc2F)n1)c1nccnc1C(F)(F)F [Compound I-1-24] | 100 | 100 |  | 1.73 |  | efficacy (kill) (Musca domestica): 80%; efficacy (kill) (Lucilia cuprina): 100% |
| O=C(Nc1ncn(-c2c(F)cccc2Br)n1)c1ccccc1C(F)(F)F [Compound I-1-30, 2-Trifluoromethyl-N-[1-(2-bromo-6-fluorophenyl)-1H-1,2,4-triazol-3-yl]benzamide] | 100 | 100 |  |  | 80 | chromatographic logP ([1]; HPLC-MS, preparation examples, read-out: log P (neutral)): 2.15 |
| O=C(Nc1ncn(-c2c(F)cccc2Cl)n1)c1ccccc1C(F)(F)F [Compound I-1-33] | 100 | 100 | 100 | 2.10 | 100 |  |
| O=C(Nc1ncn(-c2c(Cl)cccc2Cl)n1)c1ccccc1C(F)(F)F [Compound I-1-44] | 100 | 90 |  | 2.26 |  |  |
| O=C(Nc1ncn(-c2c(F)ccc(F)c2F)n1)c1ccccc1C(F)(F)F [Compound I-1-57] | 100 | 90 |  | 2.10 | 100 |  |
| O=C(Nc1ncn(-c2c(F)ccc(F)c2F)n1)c1ccccc1I [Compound I-1-59] | 100 | 100 |  | 2.03 | 90 |  |
| O=C(Nc1ncn(-c2ccccc2Br)n1)c1ccccc1I [Compound I-1-72] |  |  |  | 2.09 |  | efficacy (Myzus persicae): 90% |
| Cc1cc(C)c([S+]([O-])CC(F)(F)F)cc1-n1cnc(NC(=O)c2ccccc2C(F)(F)F)n1 (stereo not shown) [Compound I-1-90] |  |  |  | 2.31 |  | efficacy (Tetranychus urticae): 95% |
| O=C(Nc1ncn(-c2c(F)cccc2F)n1)c1ncccc1C(F)(F)F [Compound I-1-91] | 100 |  | 100 | 1.82 |  |  |
| O=C(Nc1nnn(-c2ccccc2)n1)c1ccccc1C(F)(F)F [Compound I-2-3, N-(2-Phenyl-2H-tetrazol-5-yl)-2-(trifluoromethyl)benzamide] |  |  | 100 |  |  | chromatographic logP [1, 2]: 2.57; chromatographic logP [1, 3]: 2.57 |
